Where a name gives a salt, the structure may show the parent alone.
tested on: PMS1; assay: Mini-gene reporter assay-PMS1; assay type: cell-based; conditions: Homo sapiens, HEK293, PMS1 mini-gene firefly luciferase reporter transiently transfected into HEK293 cells; read-out: PMS1 IC50
Summary of the method: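 HEK293 cells transiently transfected with a mini-gene construct: skipped exon with flanking introns and exons fused to firefly luciferase in pcDNA3.1, so exon inclusion raises luciferase signal. Compounds tested in duplicate dilutions, luminescence read after incubation, EC50 fitted by Levenberg-Marquardt.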

Row | IC50 | Structure (SMILES)
1 | 1000 to 3000 nM | CCOc1nc(N2CC[C@@H](N(C)C)C2)ncc1C(=O)Nc1cc(F)c2nn(C)cc2c1 [Compound 292, (R)-2-(3-(dimethylamino)pyrrolidin-1-yl)-4-ethoxy-N-(7-fluoro-2-methyl-2H-indazol-5-yl)pyrimidine-5-carboxamide formate]
2 | > 3000 nM | CCOc1nc(N2CC[C@H](NC)C2)ncc1C(=O)Nc1ccc2nc(C)cn2c1 [Compound 293, (S)-4-ethoxy-2-(3-(methylamino)pyrrolidin-1-yl)-N-(2-methylimidazo[1,2-a]pyridin-6-yl)pyrimidine-5-carboxamide formate]
3 | > 3000 nM | CCOc1nc(N2CC[C@H](N(C)C)C2)ncc1C(=O)Nc1cc(F)c2nc(C)cn2c1 [Compound 294, (S)-2-(3-(dimethylamino)pyrrolidin-1-yl)-4-ethoxy-N-(8-fluoro-2-methylimidazo[1,2-a]pyridin-6-yl)pyrimidine-5-carboxamide formate]
4 | 500 to 1000 nM | CCOc1nc(N2CC[C@@H](NC)C2)ncc1C(=O)Nc1cc(OC)c2nn(C)cc2c1 [Compound 295, (R)-4-ethoxy-N-(7-methoxy-2-methyl-2H-indazol-5-yl)-2-(3-(methylamino)pyrrolidin-1-yl)pyrimidine-5-carboxamide 4-methylbenzenesulfonate]
5 | > 3000 nM | CCOc1nc(N2CCNC3(CC3)C2)ncc1C(=O)Nc1cc(F)c2nc(C)cn2c1 [Compound 296, 4-ethoxy-N-(8-fluoro-2-methylimidazo[1,2-a]pyridin-6-yl)-2-(4,7-diazaspiro[2.5]octan-7-yl)pyrimidine-5-carboxamide 2,2,2-trifluoroacetate]
6 | < 500 nM | CCOc1nc(N2CC[C@H](CNC)C2)ncc1C(=O)Nc1cc(F)c2nc(C)cn2c1 [Compound 297, (R)-4-ethoxy-N-(8-fluoro-2-methylimidazo[1,2-a]pyridin-6-yl)-2-(3-((methylamino)methyl)pyrrolidin-1-yl)pyrimidine-5-carboxamide 4-methylbenzenesulfonate]
7 | 1000 to 3000 nM | CCOc1nc(N2CC[C@H](NC)C2)ncc1C(=O)Nc1cc(OC)c2nn(C)cc2c1 [Compound 298, (S)-4-ethoxy-N-(7-methoxy-2-methyl-2H-indazol-5-yl)-2-(3-(methylamino)pyrrolidin-1-yl)pyrimidine-5-carboxamide 4-methylbenzenesulfonate]
8 | > 3000 nM | CCOc1nc(N2CCNC3(CC3)C2)ncc1C(=O)Nc1cc(F)c2nn(C)cc2c1 [Compound 299, 4-ethoxy-N-(7-fluoro-2-methyl-2H-indazol-5-yl)-2-(4,7-diazaspiro[2.5]octan-7-yl)pyrimidine-5-carboxamide formate]
9 | 1000 to 3000 nM | CCOc1nc(N2CCC(CN(C)C)CC2)ncc1C(=O)Nc1cc(F)c2nc(C)cn2c1 [Compound 300, 2-(4-((dimethylamino)methyl)piperidin-1-yl)-4-ethoxy-N-(8-fluoro-2-methylimidazo[1,2-a]pyridin-6-yl)pyrimidine-5-carboxamide formate]
10 | 1000 to 3000 nM | CCCOc1nc(N2CCNCC2)ncc1C(=O)Nc1cc(F)c2nn(C)cc2c1 [Compound 301, N-(7-fluoro-2-methyl-2H-indazol-5-yl)-2-(piperazin-1-yl)-4-propoxypyrimidine-5-carboxamide]
11 | > 3000 nM | Cn1cc2cc(NC(=O)c3cnc(N4CCNCC4)nc3OCC(F)F)cc(F)c2n1 [Compound 302, 4-(2,2-difluoroethoxy)-N-(7-fluoro-2-methyl-2H-indazol-5-yl)-2-(piperazin-1-yl)pyrimidine-5-carboxamide]
12 | 500 to 1000 nM | CCOc1nc(N2CCC3(CC2)CN(C)C3)ncc1C(=O)Nc1cc(F)c2nc(C)cn2c1 [Compound 303, 4-ethoxy-N-(8-fluoro-2-methylimidazo[1,2-a]pyridin-6-yl)-2-(2-methyl-2,7-diazaspiro[3.5]nonan-7-yl)pyrimidine-5-carboxamide]
13 | 500 to 1000 nM | CCOc1nc(N2CC[C@@H](CNC)C2)ncc1C(=O)Nc1cc(F)c2nc(C)cn2c1 [Compound 304, (S)-4-ethoxy-N-(8-fluoro-2-methylimidazo[1,2-a]pyridin-6-yl)-2-(3-((methylamino)methyl)pyrrolidin-1-yl)pyrimidine-5-carboxamide 4-methylbenzenesulfonate]
14 | 500 to 1000 nM | CCOc1nc(N2CC[C@@H](CN(C)C)C2)ncc1C(=O)Nc1cc(F)c2nc(C)cn2c1 [Compound 305, (S)-2-(3-((dimethylamino)methyl)pyrrolidin-1-yl)-4-ethoxy-N-(8-fluoro-2-methylimidazo[1,2-a]pyridin-6-yl)pyrimidine-5-carboxamide formate]
15 | 1000 to 3000 nM | CCOc1nc(N2CCNCC2)ncc1C(=O)Nc1cc2cn(C)nc2c(F)c1C [Compound 307, 4-ethoxy-N-(7-fluoro-2,6-dimethyl-2H-indazol-5-yl)-2-(piperazin-1-yl)pyrimidine-5-carboxamide hydrochloride]
16 | > 3000 nM | CCOc1nc(N2CC[C@@H](NC)C2)ncc1C(=O)Nc1ccc2nc(C)cn2n1 [Compound 317]
17 | > 3000 nM | CCOc1nc(N2CC[C@H](NC)C2)ncc1C(=O)Nc1ccc2nc(C)cn2n1 [Compound 318]
18 | > 3000 nM | CCOc1nc(N2CCC(NC)C2)ncc1C(=O)Nc1ccc2nc(C)cn2n1 (stereo not drawn) [Compound 319]

Row | Structure (SMILES) | IC50
19 | CC(C)COc1nc(N2CCNCC2)ncc1C(=O)Nc1cc(F)c2nn(C)cc2c1 [Compound 306, N-(7-fluoro-2-methyl-2H-indazol-5-yl)-4-isobutoxy-2-(piperazin-1-yl)pyrimidine-5-carboxamide formate] | 1000 to 3000 nM

same assay, conditions: Homo sapiens, HEK293, read-out: PMS1% Effect at 5 μM

Row | Structure (SMILES) | activation at 5 µM
20 | CCOc1nc(N2CCNCC2)ncc1C(=O)Nc1cn2cc(C)nc2cc1F [Compound 308, 4-ethoxy-N-(7-fluoro-2-methylimidazo[1,2-a]pyridin-6-yl)-2-(piperazin-1-yl)pyrimidine-5-carboxamide formate] | > 75%

same assay, conditions: Homo sapiens; at 5 μM; PMS1 mini-gene firefly luciferase reporter in HEK293 cells; read-out: PMS1% Effect at 5 μM

Row | Structure (SMILES) | activation at 5 µM
21 | CCOc1nc(N2CC[C@@H](NC)C2)ncc1C(=O)Nc1ccn2nc(C)cc2c1 [Compound 313, 4-ethoxy-2-[(3R)-3-(methylamino)pyrrolidin-1-yl]-N-2-methylpyrazolo[1,5-a]-pyridin-5-ylpyrimidine-5-carboxamide] | > 75%
22 | CCOc1nc(N2CC[C@H](NC)C2)ncc1C(=O)Nc1ccn2nc(C)cc2c1 [Compound 314, 4-ethoxy-2-[(3S)-3-(methylamino)pyrrolidin-1-yl]-N-2-methylpyrazolo[1,5-a]-pyridin-5-ylpyrimidine-5-carboxamide] | > 75%
23 | CCOc1nc(C2=CCNC2)ncc1C(=O)Nc1cc(F)c2nc(C)cn2c1 [Compound 315, 2-(2,5-dihydro-1H-pyrrol-3-yl)-4-ethoxy-N-8-fluoro-2-methylimidazo[1,2-a]-pyridin-6-ylpyrimidine-5-carboxamide] | > 75%
24 | CCOc1nc(C2CCNC2)ncc1C(=O)Nc1cc(F)c2nc(C)cn2c1 (stereo not drawn) [Compound 316, 4-ethoxy-N-8-fluoro-2-methylimidazo[1,2-a]pyridin-6-yl-2-(pyrrolidin-3-yl)-pyrimidine-5-carboxamide] | 50 to 75%
